Structures can show the parent of a compound that is named as a salt.
How the values were obtained:
[1] = test system: dopamine (DA) neurons in substantia nigra pars compacta; settings: MPTP model, daily injections; cited from earlier work
[2] = test system: SirT1; assay: RT-PCR analysis of target gene expression under glutamate toxicity in HT22 cells; type: cell-based, mouse; settings: 10 mM glutamate, 18 hrs
Experimental: HT22 cells (1.5×10^7) plated in a 100 mm dish were treated with 10 mM glutamate in the absence or presence of 3-HM.HBr or the compound of Example 26 and incubated for 18 hrs. Oligonucleotide primers used for the PCR amplification were DJ-1 (PARK7), LRRK2 (Leucine-rich repeat kinase 2), PINK1 (PTEN induced putative kinase 1), SirT1 (silent mating type information regulation 2 homolog 1 (S. cerevisiae)), SirT2 (silent mating type information regulation 2 homolog 2 (S. cerevisiae)), and others. PCR products were electrophoresed on 2% agarose gels and detected by ethidium bromide [Kumiko I. et al., The Activation of Dopamine D4 Receptors Inhibits Oxidative Stress-Induced Nerve Cell Death., J. Neurosci., 2001].
FIG. 2A and FIG. 2B show the results of reverse transcription polymerase chain reaction.
In FIG. 2A, Lane 1 is mock, Lane 2 is the group treated with 10 mM Glutamate, and Lane 3 is the group treated with 10 mM Glutamate and 100 uM 3-HM.HBr. […]

[3] = test system: SirT1; assay: Western blotting analysis of SirT1 in glutamate-treated HT22 cells; type: cell-based, mouse; settings: 10 mM glutamate, 18 hrs
Experimental: HT22 cells (1.5×10^7) plated in a 100 mm dish were treated with 10 mM glutamate in the absence or presence of 3-HM.HBr or the compound of Example 26, and incubated for 18 hrs. The cells were collected by scraping in a sample buffer (3% SDS, 1% glycerol, 0.5% 2-mercaptoethanol, 0.05% bromophenol blue, and 80 mM Tris-HCl buffer, pH 6.8, with complete protease inhibitors). The resulting suspention was centrifuged and the pellets thus obtained were re-suspended in the sample buffer. The samples were heated for 3 min in boiling water, fractionated on 4-20% polyacrylamide gels, and electroblotted onto membranes. SirT1 affinity purified polyclonal antibody was used as the primary antibody. Immunoreactive bands were detected with the ECL (Amersham Pharmacia Biotech, Arlington Heights, Ill.) Western blotting detection reagents [Kumiko, I. et al., The Activation of Dopamine D4 Receptors Inhibits Oxidative Stress-Induced Nerve Cell Death., J. Neurosci., 2001, 21(16):6069-6076]. […]

[4] = Total antioxidant activity assay (TEAC; metmyoglobin, 2,2′-azinobis(3-ethylbenzoline 6-sulfonate), H2O2); settings: for EC50: 7.5 min at 30° C., absorbance at 734 nm
Experimental: Briefly, 1 ml of reaction mixture including 2.5 μM metmyoglobin, 150 μM 2,2′-azinobis(3-ethylbenzoline 6-sulfonate), 75 μM H2O2, and 0.84% sample or Trolox (for standard) in PBS was incubated for 7.5 min at 30° C.; then the absorbance at 734 nm was measured. The data are normalized to 1 mM Trolox (TEAC activity) [Kumiko I. et al., The Activation of Dopamine D4 Receptors Inhibits Oxidative Stress-Induced Nerve Cell Death., J. Neurosci., 2001]. The EC50 values were analyzed statistically using Prizm® (GraphPad Software Inc., San Diego, Calif., USA).

[5] = test system: HT22 cells; assay: ROS measurement using DCFDA in glutamate-treated HT22 cells; type: cell-based; settings: Mus musculus, HT-22, 5 mM glutamate, 8 hrs
Experimental: HT22 cells (1×10^4) plated in a 96-well plate were treated with 5 mM glutamate in the absence or presence of 3-HM.HBr or the compound of Example 26, and incubated for 8 hrs. After washing with PBS, cells were stained with 10 μM 2,7-dichlorodihydrofluorescein diacetate (DCFDA) in HBSS (Hank's balanced salt solution, Gibco) for 30 min in the dark. Then the cells were washed with PBS twice and extracted with 1% Triton X-100 in PBS for 10 min at 37° C. Fluorescence was recorded with the excitation wavelength of 490 nm and the emission wavelength of 525 nm (Infinite M200, TECAN) [Da-Qing, et. al., Anti-oxidant and anti-inflammatory activities of macelignan in murine hippocampal cell line and primary culture of rat microglia cells, BBRC, 2005, 331, 1264-1269]. The EC50 values were analyzed statistically using Prizm® (GraphPad Software Inc., San Diego, Calif., USA).

[6] = Cell cytotoxicity test: protection of HT22 cells against glutamate toxicity (EC50) and cytotoxicity of the compounds (CC50), MTT; type: cell-based, mouse; settings: mouse, HT22 cells (mouse hippocampal neuron)
Method in brief: (§1)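 Cells plated 16 hrs, then exposed to 5 mM glutamate plus a compound concentration series for 24 hrs in DMEM with 10% FBS. Viability by MTT (4 hrs), absorbance at 450 nm; EC50 is protection against glutamate toxicity, CC50 is compound cytotoxicity.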

[7] = test system: HT22 cells (mouse hippocampal neuron); assay: as above; type: cell-based; settings: Mus musculus, HT-22, five millimolar glutamate, 24 hrs, read-out: EC50 (neuroprotective effect against glutamate toxicity)
Method in brief: as §1

Structure (SMILES) | CC50 at 24 h [6] | EC50 [7] | further results
Oc1ccc2c(c1)[C@]13CCCC[C@@H]1[C@H](C2)NCC3 [(+)-3-HM, (+)-3-Hydroxymorphinan] |  |  | DA levels in striatum [1]: DA levels in striatum has been restored; protection of DA neurons in substantia nigra pars compacta [1]: dopamine (DA) neurons in substantia nigra pars compacta have been protected
Oc1ccc2c(c1)[C@]13CCCC[C@@H]1[C@H](C2)NCC3 [3-HM•HBr, (+)-3-hydroxymorphinan HBr, reference compound] | > 100 µM | 31.3 µM | SirT1 expression levels (RT-PCR) [2]: decreased SirT1 expression levels were elevated; SirT1 expression (Western blotting) [3]: this decreasing was protected; inhibition (total antioxidant activity) ([4]; at 100 μM): 22.4%; EC50 [5]: 38.5 µM
Cc1c(C)c2c(c(C)c1O)CCC(C)(C(=O)O)O2 (stereo not drawn) [Trolox] |  |  | EC50 [4]: 47.5 µM
Oc1cc2c(cc1Nc1ccccn1)C[C@@H]1NCC[C@]23CCCC[C@H]13 [Example 34, (+)-3-Hydroxy-2-(pyridin-2-ylamino)morphinan 2TFA salt] | 41.5 µM | 2.34 µM | 
Oc1cc2c(cc1Nc1ccc3ncccc3c1)C[C@@H]1NCC[C@]23CCCC[C@H]13 [Example 68, TFA salt] | 8.5 µM | 1.72 µM | 
Oc1cc2c(cc1Nc1ccc3[nH]ncc3c1)C[C@@H]1NCC[C@]23CCCC[C@H]13 [Example 69, (+)-3-Hydroxy-2-((1H-indazol-5-yl)amino)morphinan TFA salt] | 48 µM | 1.02 µM | 
Oc1cc2c(cc1Nc1cccc3cnccc13)C[C@@H]1NCC[C@]23CCCC[C@H]13 [Example 67, TFA salt] | 12.5 µM | 0.107 µM | 
CC(C)c1ccccc1Nc1cc2c(cc1O)[C@]13CCCC[C@@H]1[C@H](C2)NCC3 [Example 50, (+)-3-Hydroxy-2-(2-isopropylphenylamino)morphinan TFA salt] | 1 µM | 0.043 µM | 
CC(C)COC(=O)Nc1ccccc1Nc1cc2c(cc1O)[C@]13CCCC[C@@H]1[C@H](C2)NCC3 [Example 119, (+)-3-Hydroxy-2-(2-(isobutyloxycarbonylamino)phenylamino)morphinan TFA salt] | 8.7 µM | 0.211 µM | 
Oc1ccc(Nc2cc3c(cc2O)[C@]24CCCC[C@@H]2[C@H](C3)NCC4)cc1 [Example 26, (+)-3-Hydroxy-2-(4-hydroxyphenylamino)morphinan TFA salt] | 2.31 µM | 0.00459 µM | SirT1 expression levels (RT-PCR) [2]: decreased SirT1 expression levels were elevated; SirT1 expression (Western blotting) [3]: this decreasing was protected; EC50 [4]: 32.4 µM; EC50 [5]: 3.11 µM
Nc1ccccc1Nc1cc2c(cc1O)[C@]13CCCC[C@@H]1[C@H](C2)NCC3 [Example 106, (+)-2-(2-Aminophenylamino)-3-hydroxymorphinan TFA salt] | 21.8 µM | 0.0366 µM | 
CCOCCNc1cc2c(cc1O)[C@]13CCCC[C@@H]1[C@H](C2)NCC3 [Example 99, (+)-2-(2-Ethoxyethylamino)-3-hydroxymorphinan TFA salt] | > 100 µM | 10.4 µM | 
Oc1cc2c(cc1Nc1cccc(F)c1)C[C@@H]1NCC[C@]23CCCC[C@H]13 [Example 39, (+)-2-(3-Fluorophenylamino)-3-hydroxymorphinan TFA salt] | 13.8 µM | 0.145 µM | 
